# Entries after “also recorded” stand apart in the source; their conditions may differ.
# Legend:
# Format in all cases: cell-based
# SNU-1411 cells [1] = experiment: Label-free determination of cell proliferation, SNU-1411 confluency, AMG510 (Example 6); conditions: for cell proliferation (SNU-1411 confluency), drug alone: SNU-1411 (KRAS G12C), 32 days, single drug: 1 μM Compound A, 0.2 μM Compound C, 0.2 μM CCS1477, 1 μM FT-6876, 0.2 μM GNE-781, 300 nM AMG510; for development of drug resistance / re-growth, combined with AMG510: CBP/p300 bromodomain inhibitor combined with 300 nM AMG510
# Procedure: (§1) 2000 SNU-1411 cells [KCLB; 01411, a CRC (rectal adenocarcinoma) cell line carrying a KRAS G12C mutation], were seeded into 96 well plates (Greiner BioOne 655090) one day prior to drug treatment in RPMI medium containing 10% FCS and 2 mM L-Glutamine. The next day, the wells were imaged label-free using brightfield imaging on a CELIGO Image Cytometer to determine the initial cell confluency. […] Plates were regularly imaged over weeks using brightfield mode (CELIGO Imaging Cytometer) to track cell confluency in each well over time. Growth medium and treatments were replenished twice weekly. […] Confluency was determined using CELIGO software's built-in “confluence” analysis tool in the brightfield mode.
# SW837 cells = experiment: Label-free determination of cell proliferation, SW837 confluency, AMG510 (Example 8); conditions: for cell proliferation (SW837 confluency), drug alone: SW837 (KRAS G12C), 49 days, single drug: 1 μM Compound A, 0.2 μM Compound C, 0.2 μM CCS1477, 1 μM FT-6876, 0.2 μM GNE-781, 100 nM AMG510; for development of drug resistance / re-growth, combined with AMG510: CBP/p300 bromodomain inhibitor combined with 100 nM AMG510
# Procedure: 2000 SW837 cells [ATCC; CCL-235, a CRC (rectal adenocarcinoma) cell line carrying a KRAS G12C mutation], were seeded into 96 well plates (Greiner BioOne 655090) one day prior to drug treatment in RPMI medium containing 10% FCS and 2 mM L-Glutamine. The next day, the wells were imaged label-free using brightfield imaging on a CELIGO Image Cytometer to determine the initial cell confluency. […] Plates were regularly imaged over weeks using brightfield mode (CELIGO Imaging Cytometer) to track cell confluency in each well over time. Growth medium and treatments were replenished twice weekly. […] Confluency was determined using CELIGO software's built-in “confluence” analysis tool in the brightfield mode.
# NCI-H358 cells = experiment: Label-free determination of cell proliferation, NCI-H358 cell number, AMG510 (Example 9)
# Procedure: 2000 NCI-H358 cells [KCLB; 25807; a non-small cell lung cancer (NSCLC) cell line with KRAS G12C mutation] were seeded into 96 well plates (Greiner BioOne 655090) one day prior to drug treatment in RPMI medium containing 10% FCS and 2 mM L-Glutamine. The next day, the wells were imaged label-free using brightfield imaging on a CELIGO ImageCytometer to determine the initial cell number. […] The cells were regularly imaged over weeks using brightfield mode (CELIGO Imaging Cytometer) to track cell proliferation in each well over time. Growth medium and treatments were replenished twice weekly. […] Cell numbers were determined using CELIGO software's built-in “direct cell counting” analysis tool in the brightfield mode.
# SNU-1411 cells [2] = experiment: Label-free determination of cell proliferation, SNU-1411 confluency, MRTX849 (Example 7); conditions: for development of drug resistance / re-growth, combined with MRTX849: SNU-1411, 32 days, CBP/p300 bromodomain inhibitor combined with 300 nM MRTX849; for cell proliferation (SNU-1411 confluency), drug alone: SNU-1411 (KRAS G12C), 32 days, single drug: 1 μM Compound A, 0.2 μM Compound C, 0.2 μM CCS1477, 1 μM FT-6876, 0.2 μM GNE-781, 300 nM MRTX849
# Procedure: as §1
Structure (SMILES),"cell proliferation (SNU-1411 confluency), drug alone (SNU-1411 cells [1])","re-growth in long-term culture, AMG510 alone (SNU-1411 cells [1]; SNU-1411, 32 days, 300 nM AMG510 alone)","cell proliferation (SW837 confluency), drug alone (SW837 cells)","re-growth in long-term culture, AMG510 alone (SW837 cells; SW837, 49 days, 100 nM AMG510 alone)","cell proliferation (NCI-H358 cell number), drug alone (NCI-H358 cells; NCI-H358 (KRAS G12C), >20 days, single drug: 1 μM Compound A, 200 nM Compound C, 100 nM AMG510)","re-growth in long-term culture, AMG510 alone (NCI-H358 cells; NCI-H358, >20 days, 100 nM AMG510 alone)","development of drug resistance / re-growth, combined with AMG510 (SNU-1411 cells [1]; SNU-1411, 32 days)","development of drug resistance / re-growth, combined with MRTX849 (SNU-1411 cells [2])","development of drug resistance / re-growth, combined with AMG510 (SW837 cells; SW837, 49 days)","development of drug resistance / re-growth, combined with AMG510 (NCI-H358 cells; NCI-H358, >20 days, 1 μM Compound A or 200 nM Compound C combined with 100 nM AMG510)","cell proliferation (SNU-1411 confluency), drug alone (SNU-1411 cells [2])"
C=CC(=O)N1CCN(c2nc(=O)n(-c3c(C)ccnc3C(C)C)c3nc(-c4c(O)cccc4F)c(F)cc23)[C@@H](C)C1 [AMG510],delayed cell proliferation initially for few days,re-grew,initially prevented cell proliferation,re-grew,initially completely blocked cell proliferation,re-grew,,,,,
"CC(=O)N1C[C@H](c2nc(Nc3cccc(-c4cn(C)nn4)c3)cc(-c3cnccn3)n2)CC[C@@H]1C [Compound C, 1-((2S,5R)-2-methyl-5-(4-((3-(1-methyl-1H-1,2,3-triazol-4-yl)phenyl)amino)-6-(pyrazin-2-yl)pyrimidin-2-yl)piperidin-1-yl)ethan-1-one]",,,,,,,prevent the development of drug resistance,prevent the development of drug resistance,prevent the development of drug resistance,prevent the development of drug resistance; also recorded: completely prevented re-growth,
COC(=O)N1c2ccc3c(nc(Cc4ccccc4)n3[C@H]3CCC[C@H](C(=O)O)C3)c2CC[C@@H]1C [FT-6876],do not affect cell proliferation,,do not affect cell proliferation,,,,prevent the development of drug resistance,prevent the development of drug resistance,prevent the development of drug resistance,,do not affect cell proliferation
CNC(=O)N1CCc2c(c(N3CCCc4cc(-c5cnn(C)c5)c(C(F)F)cc43)nn2C2CCOCC2)C1 [GNE-781],do not affect cell proliferation,,do not affect cell proliferation,,,,prevent the development of drug resistance,prevent the development of drug resistance,prevent the development of drug resistance,,do not affect cell proliferation
CO[C@H]1CC[C@H](n2c([C@@H]3CCCC(=O)N3c3ccc(F)c(F)c3)nc3cc(-c4c(C)noc4C)ccc32)CC1 [CCS1477],do not affect cell proliferation,,do not affect cell proliferation,,,,prevent the development of drug resistance,prevent the development of drug resistance,prevent the development of drug resistance,,do not affect cell proliferation

# Reference: patent publication US12472179B2, “Combination of a CBP/p300 bromodomain inhibitor and a KRAS inhibitor for the treatment of cancer” (TOLREMO THERAPEUTICS AG, priority 2020, dated 2025)
